Each structure is given as a SMILES string.

The test has as its system MCF-10A, a non-tumourigenic cell line. The experiment in a line: Monolayer assay (CCK-8 cytotoxicity), normal cells. Conditions: MCF10A, Normal Breast Epithelium, 24 hrs exposure, CCK-8. Format: cell-based. The method, then:
The assays were designed as in the reference, BMC Cancer, 2010, 10, 610, 1-11; the disclosure of which is incorporated by reference for the teaching of the assay.
Human tumour cell lines: Panc-1 (Pancreatic Cancer), HCT 116 (Colorectal Cancer), ACHN (Renal Cell Carcinoma), Calu-1 (Lung Carcinoma), MiaPaca2 (Pancreatic Cancer), FADU (Head and Neck Cancer), PC3 (prostate Cancer), G361 (Melanoma), MDA-MB435S (Melanoma), HeLa (Cervical Cancer) were grown in Minimal Essential Media with Eagle's Basal Salts (MEM-EBS) obtained from AMIMED (BioConcept-Switzerland). Tumour cell lines: MDA-MB231 (Breast Cancer), JURKAT (T cell leukaemia), H460 (Small Cell Lung Cancer) were cultured in RPMI 1640 (AMIMED, BioConcept, Switzerland) medium. All tumour cell lines were supplemented with 10% Foetal Bovine Serum (FBS) (GIBCO), 1% Penicillin/Streptomycin (Sigma) and 1% Anti-Anti (GIBCO) and grown in T-175 tissue culture flasks (Nunc). MCF-10A, a non-tumourigenic cell line, was cultured in Mammary Epithelial Basal Medium (MEBM) with all standard additions (Lonza, Catalog. No. CC-3150). All cells were grown in 5% CO2 incubator at 37° C. Cells were passaged at 80-90% confluence. Adherent cells were trypsinised using Trypsin-EDTA (Sigma) and maintained. All cell lines were purchased from ATCC (Rockville, Md., USA).
Compound of Formula (1a) [described in example 7] was dissolved in DMSO to give a required stock solution of 20 mM. Eight different concentrations of the compound of Formula (1a) were prepared by serial dilution of stock solution finally resulting in a (compared to the test concentration) 200-fold higher concentration. Compound of Formula (1a) was tested at the concentration of 0.0001 μM, 0.001 μM, 0.01 μM, 0.03 μM, 0.1 μM, 0.3 μM, 1 μM and 3 μM respectively. Each concentration was evaluated in triplicate.
Method for determination of IC50 of the compound of Formula (1a): • a) Different cancer/normal cells were seeded at a density of 3000 cells/200 μL well, in a tissue culture grade 96 well plate and allowed them to recover for 24 hrs in a humidified 5±0.2% CO2 incubator at 37±0.5° C. • b) After 24 hrs, 1 μL of 200× (200 times higher than required concentration is denoted as 200×) compound of Formula (1a), dissolved in DMSO, was added to the above tissue culture plate seeded with cancer/normal cells. The final concentration of DMSO was 0.5% in wells. DMSO was used as a vehicle control. • c) After 24 hrs the plate was removed from CO2 incubator and 5 μL of CCK-8 (Dojindo Molecular Technologies, Inc. USA, catalog, no. CK04-20) per well was added. • d) The plate was then placed at 37° C. for 2 hrs. • e) The absorbance was recorded at 450 nm. • f) The percent cytotoxicity was calculated using the following formula
The IC50 value was estimated by visual inspection of the concentration-effect curve. For calculation of mean IC50 values over the fourteen cell lines as tested, the geometric mean was selected.
The assays were designed as described above in example 16.
The IC50 value was estimated by visual inspection of the concentration-effect curve. For calculation of mean IC50 values over the six cell lines (PC3, MDA MB, HCT116, MCF7, MIAPaCa2, MCF10A) as tested, the geometric mean was selected.

Consider `CC(C)CC1CCC(O)(C(C)(O)C(=O)NC2C(=O)N3NCCCC3C(=O)N(O)C(C)C(=O)NCC(=O)N3NCCCC3C(=O)N(O)C(C)C(=O)OC2C(C)C)OC1C` (centres unmarked) [Formula (1a), N-(6,18-dihydroxy-22-isopropyl-7,19-dimethyl-5,8,11,17,20,24-hexaoxotetracosa hydrodipyridazino[6,1-f:6′,1′-o][1,4,7,10,13,16]oxapentaazacyclononadecin-23-yl)-2-hydroxy-2-(2-hydroxy-5-isobutyl-6-methyltetrahydro-2H-pyran-2-yl)propanamide], for which the half-maximal inhibitory concentration (IC50) stood at 19.7 ± 3.1 nM. Moreover, the IC50 (Homo sapiens, MCF-10A, 24 h) was 19 nM.

As a reminder, the IC50 is the concentration that gives 50% inhibition.
